Test results as given in patent US20110039902A1, “PROCESS FOR PREPARING A CRYSTALLINE FORM COMPOUND OF 3-BENZYL-2-METHYL-2,3,3a,4,5,6,7,7a-OCTAHYDROBENZO[d]ISOXAZOL-4-ONE” (ABIOGEN PHARMA S.P.A., priority 2008, published 2011).

Assay: stability of BTG 1640 hydrochloride salt to temperature
Format: physicochemical
Conditions: at temperatures above 30° C.

## CN1OC2CCCC(=O)C2C1Cc1ccccc1.Cl (stereo not shown) [hydrochloride salt of BTG 1640]
  stability to temperature: unstable
